In PubChem BioAssay (NCI):
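Method: 48-hour compound exposure of cells in 96-well plates, five concentrations, linear interpolation of endpoints. GI50 marks 50% less growth. At the TGI there is no net growth.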

Assays:
Experiment in all cases: growth of human tumour cells (NCI), 48 h
786-0 renal = system: 786-0 renal
A498 renal = system: A498 renal
A549 NSCLC = system: A549 NSCLC
ACHN renal = system: ACHN renal
BT-549 breast = system: BT-549 breast
CAKI-1 renal = system: CAKI-1 renal
CCRF-CEM leukemia = system: CCRF-CEM leukemia
COLO 205 colon = system: COLO 205 colon
DU-145 prostate = system: DU-145 prostate
EKVX NSCLC = system: EKVX NSCLC
HCC-2998 colon = system: HCC-2998 colon
HCT-116 colon = system: HCT-116 colon
HCT-15 colon = system: HCT-15 colon
HOP-62 NSCLC = system: HOP-62 NSCLC
HOP-92 NSCLC = system: HOP-92 NSCLC
HS 578T breast = system: HS 578T breast
HT29 colon = system: HT29 colon
IGROV1 ovarian = system: IGROV1 ovarian
K-562 leukemia = system: K-562 leukemia
KM12 colon = system: KM12 colon
LOX IMVI melanoma = system: LOX IMVI melanoma
M14 melanoma = system: M14 melanoma
MALME-3M melanoma = system: MALME-3M melanoma
MCF7 breast = system: MCF7 breast
MDA-MB-231 breast = system: MDA-MB-231 breast
MDA-MB-435 = system: MDA-MB-435
MOLT-4 leukemia = system: MOLT-4 leukemia
NCI-H226 lung = system: NCI-H226 lung
NCI-H23 lung = system: NCI-H23 lung
NCI-H460 lung = system: NCI-H460 lung
NCI-H522 lung = system: NCI-H522 lung
NCI/ADR-RES ovarian = system: NCI/ADR-RES ovarian
OVCAR-3 ovarian = system: OVCAR-3 ovarian
OVCAR-4 ovarian = system: OVCAR-4 ovarian
OVCAR-5 ovarian = system: OVCAR-5 ovarian
PC-3 prostate = system: PC-3 prostate
RPMI-8226 leukemia = system: RPMI-8226 leukemia
RXF 393 renal = system: RXF 393 renal
SF-268 CNS = system: SF-268 CNS
SF-295 CNS = system: SF-295 CNS
SF-539 CNS = system: SF-539 CNS
SK-MEL-2 melanoma = system: SK-MEL-2 melanoma
SK-MEL-28 melanoma = system: SK-MEL-28 melanoma
SK-MEL-5 melanoma = system: SK-MEL-5 melanoma
SK-OV-3 ovarian = system: SK-OV-3 ovarian
SN12C renal = system: SN12C renal
SNB-19 CNS = system: SNB-19 CNS
SNB-75 CNS = system: SNB-75 CNS
SR leukemia = system: SR leukemia
SW-620 colon = system: SW-620 colon
T-47D breast = system: T-47D breast
TK-10 renal = system: TK-10 renal
U251 CNS = system: U251 CNS
UACC-257 melanoma = system: UACC-257 melanoma
UACC-62 melanoma = system: UACC-62 melanoma
UO-31 renal = system: UO-31 renal
HL-60(TB) leukemia = system: HL-60(TB) leukemia
OVCAR-8 ovarian = system: OVCAR-8 ovarian

N#Cc1ccc(N2Cc3cc(Cl)ccc3OC3=C2C(=O)N(Cc2ccccc2)C3=O)cc1
GI50 (786-0 renal): 1920 nM | TGI (786-0 renal): 3440 nM | GI50 (A498 renal): 1830 nM | TGI (A498 renal): 3960 nM | GI50 (A549 NSCLC): 10100 nM | TGI (A549 NSCLC): 26700 nM | GI50 (ACHN renal): 870 nM | TGI (ACHN renal): 2200 nM | GI50 (BT-549 breast): 1600 nM | TGI (BT-549 breast): 3300 nM | GI50 (CAKI-1 renal): 1390 nM | TGI (CAKI-1 renal): 2780 nM | GI50 (CCRF-CEM leukemia): 226 nM | TGI (CCRF-CEM leukemia): 827 nM | GI50 (COLO 205 colon): 1210 nM | TGI (COLO 205 colon): 2920 nM | GI50 (DU-145 prostate): 1480 nM | TGI (DU-145 prostate): 2820 nM | GI50 (EKVX NSCLC): 2020 nM | TGI (EKVX NSCLC): 4920 nM | GI50 (HCC-2998 colon): 1890 nM | TGI (HCC-2998 colon): 3650 nM | GI50 (HCT-116 colon): 284 nM | TGI (HCT-116 colon): 1250 nM | GI50 (HCT-15 colon): 628 nM | TGI (HCT-15 colon): 2950 nM | GI50 (HOP-62 NSCLC): 2350 nM | TGI (HOP-62 NSCLC): 6120 nM | GI50 (HOP-92 NSCLC): 1450 nM | TGI (HOP-92 NSCLC): 3090 nM | GI50 (HS 578T breast): 2620 nM | TGI (HS 578T breast): 9250 nM | GI50 (HT29 colon): 1580 nM | TGI (HT29 colon): 3960 nM | GI50 (IGROV1 ovarian): 2190 nM | TGI (IGROV1 ovarian): 4880 nM | GI50 (K-562 leukemia): 359 nM | TGI (K-562 leukemia): 2020 nM | GI50 (KM12 colon): 2700 nM | TGI (KM12 colon): 8010 nM | GI50 (LOX IMVI melanoma): 1470 nM | TGI (LOX IMVI melanoma): 2850 nM | GI50 (M14 melanoma): 1490 nM | TGI (M14 melanoma): 3680 nM | GI50 (MALME-3M melanoma): 1440 nM | TGI (MALME-3M melanoma): 3080 nM | GI50 (MCF7 breast): 769 nM | TGI (MCF7 breast): 4720 nM | GI50 (MDA-MB-231 breast): 1740 nM | TGI (MDA-MB-231 breast): 3990 nM | GI50 (MDA-MB-435): 1340 nM | TGI (MDA-MB-435): 3270 nM | GI50 (MOLT-4 leukemia): 250 nM | TGI (MOLT-4 leukemia): 818 nM | GI50 (NCI-H226 lung): 1930 nM | TGI (NCI-H226 lung): 6780 nM | GI50 (NCI-H23 lung): 2140 nM | TGI (NCI-H23 lung): 5340 nM | GI50 (NCI-H460 lung): 2090 nM | TGI (NCI-H460 lung): 4520 nM | GI50 (NCI-H522 lung): 250 nM | TGI (NCI-H522 lung): 620 nM | GI50 (NCI/ADR-RES ovarian): 2690 nM | TGI (NCI/ADR-RES ovarian): 11400 nM | GI50 (OVCAR-3 ovarian): 442 nM | TGI (OVCAR-3 ovarian): 1540 nM | GI50 (OVCAR-4 ovarian): 1410 nM | TGI (OVCAR-4 ovarian): 3260 nM | GI50 (OVCAR-5 ovarian): 1960 nM | TGI (OVCAR-5 ovarian): 4080 nM | GI50 (PC-3 prostate): 1410 nM | TGI (PC-3 prostate): 3520 nM | GI50 (RPMI-8226 leukemia): 280 nM | TGI (RPMI-8226 leukemia): 1060 nM | GI50 (RXF 393 renal): 1540 nM | TGI (RXF 393 renal): 3050 nM | GI50 (SF-268 CNS): 1750 nM | TGI (SF-268 CNS): 3890 nM | GI50 (SF-295 CNS): 5220 nM | TGI (SF-295 CNS): 20400 nM | GI50 (SF-539 CNS): 1700 nM | TGI (SF-539 CNS): 3190 nM | GI50 (SK-MEL-2 melanoma): 2080 nM | TGI (SK-MEL-2 melanoma): 4510 nM | GI50 (SK-MEL-28 melanoma): 1620 nM | TGI (SK-MEL-28 melanoma): 3410 nM | GI50 (SK-MEL-5 melanoma): 1840 nM | TGI (SK-MEL-5 melanoma): 3510 nM | GI50 (SK-OV-3 ovarian): 10900 nM | TGI (SK-OV-3 ovarian): 31500 nM | GI50 (SN12C renal): 1510 nM | TGI (SN12C renal): 3140 nM | GI50 (SNB-19 CNS): 3320 nM | TGI (SNB-19 CNS): 11700 nM | GI50 (SNB-75 CNS): 1240 nM | TGI (SNB-75 CNS): 2530 nM | GI50 (SR leukemia): 242 nM | TGI (SR leukemia): 828 nM | GI50 (SW-620 colon): 278 nM | TGI (SW-620 colon): 971 nM | GI50 (T-47D breast): 714 nM | TGI (T-47D breast): 2580 nM | GI50 (TK-10 renal): 1450 nM | TGI (TK-10 renal): 2770 nM | GI50 (U251 CNS): 1560 nM | TGI (U251 CNS): 2980 nM | GI50 (UACC-257 melanoma): 1350 nM | TGI (UACC-257 melanoma): 2850 nM | GI50 (UACC-62 melanoma): 1260 nM | TGI (UACC-62 melanoma): 2860 nM | GI50 (UO-31 renal): 1320 nM | TGI (UO-31 renal): 2610 nM

COc1ccc(NC(=O)C2=C(SC)C(=O)N=C2N)cc1
TGI (786-0 renal): > 100000 nM | TGI (A498 renal): > 100000 nM | TGI (ACHN renal): > 100000 nM | TGI (BT-549 breast): > 100000 nM | TGI (CAKI-1 renal): > 100000 nM | TGI (CCRF-CEM leukemia): > 100000 nM | TGI (COLO 205 colon): > 100000 nM | TGI (DU-145 prostate): > 100000 nM | TGI (EKVX NSCLC): > 100000 nM | TGI (HCC-2998 colon): > 100000 nM | TGI (HCT-116 colon): > 100000 nM | TGI (HCT-15 colon): > 100000 nM | TGI (HL-60(TB) leukemia): > 100000 nM | TGI (HOP-62 NSCLC): > 100000 nM | TGI (HOP-92 NSCLC): > 100000 nM | TGI (HS 578T breast): > 100000 nM | TGI (HT29 colon): > 100000 nM | TGI (IGROV1 ovarian): > 100000 nM | TGI (K-562 leukemia): > 100000 nM | TGI (KM12 colon): > 100000 nM | TGI (LOX IMVI melanoma): > 100000 nM | TGI (MDA-MB-231 breast): > 100000 nM | TGI (MDA-MB-435): > 100000 nM | TGI (MOLT-4 leukemia): > 100000 nM | TGI (NCI-H226 lung): > 100000 nM | TGI (NCI-H23 lung): > 100000 nM | TGI (NCI-H460 lung): > 100000 nM | TGI (NCI/ADR-RES ovarian): > 100000 nM | TGI (OVCAR-4 ovarian): > 100000 nM | TGI (OVCAR-8 ovarian): > 100000 nM | TGI (PC-3 prostate): > 100000 nM | TGI (RPMI-8226 leukemia): > 100000 nM | TGI (RXF 393 renal): > 100000 nM | TGI (SF-268 CNS): > 100000 nM | TGI (SF-295 CNS): > 100000 nM | TGI (SK-MEL-2 melanoma): > 100000 nM | TGI (SK-MEL-28 melanoma): > 100000 nM | TGI (SK-MEL-5 melanoma): > 100000 nM | TGI (SK-OV-3 ovarian): > 100000 nM | TGI (SNB-19 CNS): > 100000 nM | TGI (SNB-75 CNS): > 100000 nM | TGI (SR leukemia): > 100000 nM | TGI (SW-620 colon): > 100000 nM | TGI (T-47D breast): > 100000 nM | TGI (TK-10 renal): > 100000 nM | TGI (U251 CNS): > 100000 nM | TGI (UACC-257 melanoma): > 100000 nM | TGI (UACC-62 melanoma): > 100000 nM | TGI (UO-31 renal): > 100000 nM
